# Patent publication US20240261271A1, “APPLICATION OF HYDRONIDONE IN PREPARATION OF DRUG FOR TREATING OR PREVENTING CHRONIC HEPATITIS B WITH LIVER FIBROSIS” (priority 2021, published 2024)
# Where “and” joins values, the source holds several entries; their conditions need not be identical. Identical values can stand only once.
# Tested on: chronic hepatitis B with hepatic fibrosis
# Test: Phase II clinical study: hepatic fibrosis Ishak score by liver biopsy, before and after 52 weeks of treatment on entecavir basic treatment
# Format: in vivo, human
# Conditions: for Ishak score 4 points, n(%) / Ishak score 5 points, n(%) / Ishak score 6 points, n(%) / Hepatic fibrosis Ishak score, Mean (SD) / Hepatic fibrosis Ishak score, Median / Ishak score 0 point, n(%) / Ishak score 1 point, n(%) / Ishak score 2 points, n(%) / Ishak score 3 points, n(%) / Progressive Ishak score (increases by ≥1 compared with the baseline) / Reversed Ishak score (decreases by ≥1 point compared with the baseline) / Stable Ishak score (unchanged compared with the baseline): 52 weeks of treatment; for Rate difference (B-C) % and 95% CI, Ishak score decreased by ≥1: 360 mg group minus 180 mg group; for Rate difference (B-C) % and 95% CI, Ishak score decreased by ≥1 / Rate difference (B-D) % and 95% CI, Ishak score decreased by ≥1 / Rate difference (A-B) % and 95% CI, Ishak score decreased by ≥1 / Rate difference (A-C) % and 95% CI, Ishak score decreased by ≥1 / Rate difference (A-D) % and 95% CI, Ishak score decreased by ≥1: 52 weeks; for Rate difference (B-D) % and 95% CI, Ishak score decreased by ≥1: 360 mg group minus 270 mg group; for Rate difference (A-C) % and 95% CI, Ishak score decreased by ≥1: placebo group minus 180 mg group; for Rate difference (A-D) % and 95% CI, Ishak score decreased by ≥1: placebo group minus 270 mg group
# Description: This is a randomized, double-blind, placebo-controlled, multicenter, and dose-finding phase II clinical study with foundational treatment. In the clinical trial, three different dose test groups and a placebo control group were set on the basis of the entecavir capsule antiviral treatment, and the planned sample amount of each group was 60 cases, totaling 240 cases. The three dose test groups were 180 mg group, 270 mg group, and 360 mg group, respectively. […]
# [1] = 270 mg group, PPS, baseline Ishak score ≥3
# [2] = 270 mg group, PPS, all subjects
# [3] = 270 mg group, PPS, screening period-follow-up 15 (52 weeks), baseline Ishak score ≥3
# [4] = 360 mg group, FAS, 52 weeks of treatment vs baseline, all subjects
# [5] = 360 mg group, FAS, all subjects
# [6] = 360 mg group, FAS, baseline Ishak score ≥3
# [7] = 360 mg group, FAS, screening period-follow-up 15 (52 weeks), baseline Ishak score ≥3
# [8] = 360 mg group, PPS, 52 weeks of treatment vs baseline, all subjects
# [9] = 360 mg group, PPS, all subjects
# [10] = 360 mg group, PPS, baseline Ishak score ≥3
# [11] = 360 mg group, PPS, screening period-follow-up 15 (52 weeks), baseline Ishak score ≥3
# [12] = Group B/C/D combined, FAS, baseline Ishak score ≥2
# [13] = Group B/C/D combined, FAS, screening period-follow-up 15 (52 weeks), baseline Ishak score ≥2
# [14] = Group B/C/D combined, PPS, baseline Ishak score ≥2
# [15] = Group B/C/D combined, PPS, screening period-follow-up 15 (52 weeks), baseline Ishak score ≥2
smiles,measurement,setting,value
Cc1ccc(=O)n(-c2ccc(O)cc2)c1 [hydronidone],"Ishak score 4 points, n(%)",[1],5(20.00) n(%)
same,"Ishak score 5 points, n(%)",[1],5(20.00) n(%)
same,"Ishak score 6 points, n(%)",[1],2(8.00) n(%)
same,"Ishak score change, Baseline-52 weeks of treatment, Mean (SD)",[2],0.91(1.15)
same,"Ishak score change, Baseline-52 weeks of treatment, Median",[2],1.00
same,"Ishak score decreased by <1, n(%)",[3],7(28.00) n(%)
same,"Ishak score decreased by ≥1, n(%)",[3],18(72.00) n(%)
same,"Rate difference (B-C) % and 95% CI, Ishak score decreased by ≥1","FAS, all subjects","3.43(−17.12, 23.60) %"
same,"Rate difference (B-C) % and 95% CI, Ishak score decreased by ≥1","FAS, baseline Ishak score ≥3","4.45(−20.88, 29.28) %"
same,"Rate difference (B-C) % and 95% CI, Ishak score decreased by ≥1","PPS, all subjects","5.72(−16.89, 27.53) %"
same,"Rate difference (B-C) % and 95% CI, Ishak score decreased by ≥1","PPS, baseline Ishak score ≥3","8.91(−17.46, 34.07) %"
same,"Rate difference (B-D) % and 95% CI, Ishak score decreased by ≥1","FAS, all subjects","−12.20(−32.01, 9.10) %"
same,"Rate difference (B-D) % and 95% CI, Ishak score decreased by ≥1","FAS, baseline Ishak score ≥3","−5.67(−29.01, 18.67) %"
same,"Rate difference (B-D) % and 95% CI, Ishak score decreased by ≥1","PPS, all subjects","−12.77(−33.83, 9.98) %"
same,"Rate difference (B-D) % and 95% CI, Ishak score decreased by ≥1","PPS, baseline Ishak score ≥3","−4.00(−27.91, 20.54) %"
same,"Ishak score decreased by <1, n(%)",[4],23(56.10) n(%)
same,"Ishak score decreased by ≥1, n(%)",[4],18 (43.90%) n(%) and 18(43.90) n(%)
same,"Hepatic fibrosis Ishak score, Mean (SD)",[5],2.83(1.45)
same,"Hepatic fibrosis Ishak score, Median",[5],3.00
same,"Ishak score 0 point, n(%)",[5],0(0.00) n(%)
same,"Ishak score 1 point, n(%)",[5],10(24.39) n(%)
same,"Ishak score 2 points, n(%)",[5],8(19.51) n(%)
same,"Ishak score 3 points, n(%)",[5],9(21.95) n(%)
same,"Ishak score 4 points, n(%)",[5],8(19.51) n(%)
same,"Ishak score 5 points, n(%)",[5],5(12.20) n(%)
same,"Ishak score 6 points, n(%)",[5],1(2.44) n(%)
same,Progressive Ishak score (increases by ≥1 compared with the baseline),[5],5 (12.20%) n(%) and 5(12.20) n(%)
same,Reversed Ishak score (decreases by ≥1 point compared with the baseline),[5],18(43.90) n(%)
same,Stable Ishak score (unchanged compared with the baseline),[5],18 (43.90%) n(%) and 18(43.90) n(%)
same,"Ishak score 0 point, n(%)",[6],0(0.00) n(%)
same,"Ishak score 1 point, n(%)",[6],4(13.79) n(%)
same,"Ishak score 2 points, n(%)",[6],4(13.79) n(%)
same,"Ishak score 3 points, n(%)",[6],8(27.59) n(%)
same,"Ishak score 4 points, n(%)",[6],7(24.14) n(%)
same,"Ishak score 5 points, n(%)",[6],5(17.24) n(%)
same,"Ishak score 6 points, n(%)",[6],1(3.45) n(%)
same,"Ishak score change, Baseline-52 weeks of treatment, Mean (SD)",[5],0.56(1.25)
same,"Ishak score change, Baseline-52 weeks of treatment, Median",[5],0.00
same,"Ishak score decreased by <1, n(%)",[7],12(41.38) n(%)
same,"Ishak score decreased by ≥1, n(%)",[7],17(58.62) n(%)
same,"Ishak score decreased by <1, n(%)",[8],16(47.06) n(%)
same,"Ishak score decreased by ≥1, n(%)",[8],18 (52.94%) n(%) and 18(52.94) n(%)
same,"Hepatic fibrosis Ishak score, Mean (SD)",[9],2.82(1.49)
same,"Hepatic fibrosis Ishak score, Median",[9],3.00
same,"Ishak score 0 point, n(%)",[9],0(0.00) n(%)
same,"Ishak score 1 point, n(%)",[9],9(26.47) n(%)
same,"Ishak score 2 points, n(%)",[9],6(17.65) n(%)
same,"Ishak score 3 points, n(%)",[9],7(20.59) n(%)
same,"Ishak score 4 points, n(%)",[9],7(20.59) n(%)
same,"Ishak score 5 points, n(%)",[9],4(11.76) n(%)
same,"Ishak score 6 points, n(%)",[9],1(2.94) n(%)
same,Progressive Ishak score (increases by ≥1 compared with the baseline),[9],5 (14.71%) n(%) and 5(14.71) n(%)
same,Reversed Ishak score (decreases by ≥1 point compared with the baseline),[9],18(52.94) n(%)
same,Stable Ishak score (unchanged compared with the baseline),[9],11 (32.35%) n(%) and 11(32.35) n(%)
same,"Ishak score 0 point, n(%)",[10],0(0.00) n(%)
same,"Ishak score 1 point, n(%)",[10],4(16.00) n(%)
same,"Ishak score 2 points, n(%)",[10],4(16.00) n(%)
same,"Ishak score 3 points, n(%)",[10],6(24.00) n(%)
same,"Ishak score 4 points, n(%)",[10],6(24.00) n(%)
same,"Ishak score 5 points, n(%)",[10],4(16.00) n(%)
same,"Ishak score 6 points, n(%)",[10],1(4.00) n(%)
same,"Ishak score change, Baseline-52 weeks of treatment, Mean (SD)",[9],0.68(1.34)
same,"Ishak score change, Baseline-52 weeks of treatment, Median",[9],1.00
same,"Ishak score decreased by <1, n(%)",[11],8(32.00) n(%)
same,"Ishak score decreased by ≥1, n(%)",[11],17(68.00) n(%)
same,"Rate difference (A-B) % and 95% CI, Ishak score decreased by ≥1","Group A vs Group B/C/D combined, FAS, baseline Ishak score ≥2","−24.09(−40.50, −4.45) %"
same,"Rate difference (A-B) % and 95% CI, Ishak score decreased by ≥1","Group A vs Group B/C/D combined, PPS, baseline Ishak score ≥2","−32.29(−48.91, −12.08) %"
same,"Ishak score 0 point, n(%)",[12],5(4.95) n(%)
same,"Ishak score 1 point, n(%)",[12],20(19.80) n(%)
same,"Ishak score 2 points, n(%)",[12],17(16.83) n(%)
same,"Ishak score 3 points, n(%)",[12],18(17.82) n(%)
same,"Ishak score 4 points, n(%)",[12],17(16.83) n(%)
same,"Ishak score 5 points, n(%)",[12],17(16.83) n(%)
same,"Ishak score 6 points, n(%)",[12],7(6.93) n(%)
same,"Ishak score decreased by <1, n(%)",[13],43(42.57) n(%)
same,"Ishak score decreased by ≥1, n(%)",[13],58(57.43) n(%)
same,"Ishak score 0 point, n(%)",[14],5(5.75) n(%)
same,"Ishak score 1 point, n(%)",[14],20(22.99) n(%)
same,"Ishak score 2 points, n(%)",[14],12(13.79) n(%)
same,"Ishak score 3 points, n(%)",[14],14(16.09) n(%)
same,"Ishak score 4 points, n(%)",[14],16(18.39) n(%)
same,"Ishak score 5 points, n(%)",[14],14(16.09) n(%)
same,"Ishak score 6 points, n(%)",[14],6(6.90) n(%)
same,"Ishak score decreased by <1, n(%)",[15],29(33.33) n(%)
same,"Ishak score decreased by ≥1, n(%)",[15],58(66.67) n(%)
same,"Rate difference (A-C) % and 95% CI, Ishak score decreased by ≥1","FAS, all subjects","−14.89(−33.32, 4.99) %"
same,"Rate difference (A-C) % and 95% CI, Ishak score decreased by ≥1","FAS, baseline Ishak score ≥3","−18.17(−42.04, 9.11) %"
same,"Rate difference (A-C) % and 95% CI, Ishak score decreased by ≥1","PPS, all subjects","−21.03(−40.20, 0.26) %"
same,"Rate difference (A-C) % and 95% CI, Ishak score decreased by ≥1","PPS, baseline Ishak score ≥3","−23.09(−46.75, 5.09) %"
same,"Rate difference (A-D) % and 95% CI, Ishak score decreased by ≥1","FAS, all subjects","−30.52% and −30.52(−48.12, −9.50) %"
same,"Rate difference (A-D) % and 95% CI, Ishak score decreased by ≥1","FAS, baseline Ishak score ≥3","−28.29(−50.04, −1.45) %"
same,"Rate difference (A-D) % and 95% CI, Ishak score decreased by ≥1","PPS, all subjects","−39.52% and −39.52(−56.83, −17.26) %"
same,"Rate difference (A-D) % and 95% CI, Ishak score decreased by ≥1","PPS, baseline Ishak score ≥3","−36.00(−56.89, −8.38) %"
same,"Rate difference (A-B) % and 95% CI, Ishak score decreased by ≥1","placebo group minus 360 mg group, FAS, all subjects","−18.32(−36.76, 1.96) %"
same,"Rate difference (A-B) % and 95% CI, Ishak score decreased by ≥1","placebo group minus 360 mg group, FAS, baseline Ishak score ≥3","−22.62(−44.98, 3.82) %"
same,"Rate difference (A-B) % and 95% CI, Ishak score decreased by ≥1","placebo group minus 360 mg group, PPS, all subjects","−26.75% and −26.75(−45.78, −4.75) %"
same,"Rate difference (A-B) % and 95% CI, Ishak score decreased by ≥1","placebo group minus 360 mg group, PPS, baseline Ishak score ≥3","−32.00(−53.61, −4.37) %"
same,"Rate difference (A-B) % and 95% CI, Ishak score decreased by ≥1","placebo group vs 270 mg group + 360 mg group, FAS, baseline Ishak score = 6","−65.00(−87.03, −10.74) %"
same,"Rate difference (A-B) % and 95% CI, Ishak score decreased by ≥1","placebo group vs 270 mg group + 360 mg group, FAS, baseline Ishak score ≥3","−25.40(−44.93, −2.00) %"
same,"Rate difference (A-B) % and 95% CI, Ishak score decreased by ≥1","placebo group vs 270 mg group + 360 mg group, FAS, baseline Ishak score ≥4","−23.80(−46.21, 2.59) %"
same,"Rate difference (A-B) % and 95% CI, Ishak score decreased by ≥1","placebo group vs 270 mg group + 360 mg group, FAS, baseline Ishak score ≥5","−15.38(−42.13, 13.79) %"
same,"Rate difference (A-B) % and 95% CI, Ishak score decreased by ≥1","placebo group vs 270 mg group + 360 mg group, PPS, baseline Ishak score = 6","−65.00(−87.03, −10.74) %"
same,"Rate difference (A-B) % and 95% CI, Ishak score decreased by ≥1","placebo group vs 270 mg group + 360 mg group, PPS, baseline Ishak score ≥3","−34.00(−53.15, −10.15) %"
same,"Rate difference (A-B) % and 95% CI, Ishak score decreased by ≥1","placebo group vs 270 mg group + 360 mg group, PPS, baseline Ishak score ≥4","−30.06(−51.94, −3.18) %"
same,"Rate difference (A-B) % and 95% CI, Ishak score decreased by ≥1","placebo group vs 270 mg group + 360 mg group, PPS, baseline Ishak score ≥5","−20.83(−47.05, 8.90) %"
